# Data: patent publication US20150219624A1, “METHODS FOR IDENTIFYING ANTI-CANCER COMPOUNDS” (MEMORIAL SLOAN KETTERING CANCER CENTER, priority 2013, published 2015)
# What was measured:
# [1] = tested on: KOPTK1 cells; assay: Metabolic labeling of nascent protein with L-azidohomoalanine (AHA); type: cell-based, human; conditions: 25 nM; p vs. vehicle 3.6×10−3
# Procedure: (Non-radioactive) Metabolic labeling of nascent protein. KOPTK1 cells were labeled for nascent protein synthesis using Click-iTR AHA (L-azidohomoalanine) metabolic labeling reagent obtained from Invitrogen (cat no. C10102) as per manufacturer's instructions. Briefly, following silvestrol, Cycloheximide or DMSO treated cells were incubated in methionine free medium for 30 min prior to AHA labeling for 1 hr. Cells were fixed with 4% paraformaldehyde in PBS for 15 min, permeablized with 0.25% Triton X-100 in PBS for 15 min followed by one wash with 3% BSA. Cells were then stained using Alexa Fluor 488 Alkyne (Invitrogen cat no. A10267) with Click-iT Cell reaction Buffer Kit (Invitrogen cat no. C10269). Changes in mean fluorescence intensity as a measure of newly synthesized protein was detected by Flow cytometry analysis.
# The number of ribosomes occupying a given transcript is given as gene specific RF reads per one million total reads (RPM).
# FIG. 10 depicts ribosome profiling quality control data and effects on translation. A and B) Read counts by length of mapped sequence before and after filtering rRNA, linker reads, non-coding RNAs, short mapped sequences (“noisy” reads; see text and method for details). C and D) Read length frequency histograms and mapping analysis of ribosome footprint data after quality control filtering for vehicle treated cells (C) or silvestrol treated cells (D). […]
# [2] = tested on: PANC-1; assay: Silvestrol sensitivity and KRAS protein levels in PANC-1; type: cell-based
# From the text: KRAS has a long T1/2 compared to MYC, and therefore the effect is less pronounced. The in vitro activity of an S6 kinase inhibitor, rapamycin, silvestrol and combinations on PNAC1 and MiaPaca2 cells are shown in FIGS. 24B and 24C, respectively.
# [3] = tested on: IMR32; assay: Silvestrol in neuroblastoma cell lines in vitro: IMR32; type: cell-based; conditions: Homo sapiens, IMR-32; IMR32 cells, N_MYC
# Procedure: (§1) The effect of silvestrol on several neuroblastoma cell lines was evaluated.
# [4] = tested on: SKNCM; assay: Silvestrol in neuroblastoma cell lines in vitro: SKNCM; type: cell-based; conditions: SKNCM cells
# Procedure: as §1
# [5] = tested on: BE(2)C; assay: Silvestrol in neuroblastoma cell lines in vitro: BE(2)C; type: cell-based; conditions: Homo sapiens; BE(2)C cells, N-MYC
# Procedure: as §1
smiles,measurement,setting,value
COC(=O)[C@H]1[C@@H](O)[C@@]2(O)c3c(OC)cc(O[C@@H]4O[C@@H]([C@H](O)CO)CO[C@H]4OC)cc3O[C@@]2(c2ccc(OC)cc2)[C@@H]1c1ccccc1 [silvestrol],max. reduction of nascent protein synthesis (AHA labeling),[1],~60%
same,KRAS expression,"[2]; PANC1 cells, 50 nM",loss of KRAS expression
same,KRAS expression,"[2]; PANC-1, 20 nM",loss of KRAS expression
same,IC50,[3],2.86 nM
same,IC50,[4],20.2 nM
same,IC50,[5],47.8 nM
